From PMC7600243, “Live Imaging of Phosphate Levels in Arabidopsis Root Cells Expressing a FRET-Based Phosphate Sensor” (Plants, 2020)

Target: PiBP (Pi binding bacterial periplasmic Binding Protein) of the FLIPPi sensors FLIPPi-30m and FLIPPi-4µ
Conditions: pH 7.0; 20 mM Tris-HCl or MOPS; in planta, externally applied Pi buffer 0-200 mM; inhibitor dose response fit, variable slope

O=P(O)(O)O [Pi, inorganic phosphate]
Kd: 35 mM
